These results are taken from US11230558B2, “Activators of autophagic flux and phospholipase D and clearance of protein aggregates including tau and treatment of proteinopathies” (THE TRUSTEES OF COLUMBIA UNIVERSITY IN THE CITY OF NEW YORK, priority 2015, dated 2022).

Each structure is given as a SMILES string.

Series [1] in a line: Photodiode array (PDA) detection in mouse brain. Type of series: in vivo. Conditions: FIG. 1. From the text: FIG. 1 is a graph showing a photodiode array (PDA) spectrum of WHYKD8 in mouse brain.
A photodiode array (PDA) was used to detect WHYKD8 in mouse brain (FIG. 1).

In series [2] the test system is HEK 293 (Human Embryo Kidney) cell line.
Description: The cells were grown in the presence of the antibiotic doxycycline. When the antibiotic is removed the cells produce Tau (which can be quantified), thus allowing the test compounds' effects on Tau's production to be compared. Doxycycline was removed for 72 hours prior to exposure to the test compounds to promote sufficient Tau production. Cells were subsequently plated into plates for each of the assays described below.
Another series addresses T1, PLD2 (Homo sapiens, UniProt O14939).
T1 construct: endogenous in cells; host or cells: HEK 293 Jump-In cells expressing mKate2-Tau
Description: PLD2 activity: Proteostat/mKate2 with PLD1 inhibitor VU0150669. Type of series: cell-based. The procedure:
The assay was run in e18 primary cortical neurons from PLD1 or PLD2 KO mice cultured for 14 days. Alternatively, the assay can be run in the cells described above in the presence of excess PLD1 or PLD2 inhibitor to preclude that particular action from contributing to the effect of the drug.
4) On the day of experiment, cells were washed in warmed HBSS twice before media containing test compound (n=3 per compound per dose), inhibitor (355 nM ML298 or 50 nM VU0150669), or vehicle are added to the wells (1.5 mL in 6 well, 600 μL in 12 well). Plates were incubated for 24 hours at 37° C. with 5% CO2.

The test system of a further series is Autophagy Markers. The series can be described thus: Autophagy markers (Cyto-ID assay) in HEK 293 cells expressing mKate2 Tau. Conditions: HEK 293 mKate2 Tau cells. Type of series: cell-based, Human. As for the experimental part: The dye used in the kit prevents its accumulation within lysosomes, but enables labelling of vacuoles associated with the autophagy pathway using the LC3 biomarker.
The test compounds (along with CytoID™ dye and Hoechst stain) were added to the cells and incubated for 3 hours. Reference compounds were also used in each plate, Rapamycin was used for autophagy induction and chloroquine was used for lysosomal inhibition. After 3 hours test compound was aspirated off and kept. Cells were then washed and read using a fluorescence plate reader. Hoescht, Cyto-ID™ and mKate2 were measured using 3 distinct wavelengths on the plate reader. The Hoescht measurement allowed normalisation of results across wells. After reading, test compound was re-added and the cells are left for a further 21 hours. At the 24 hour time point cells were once again washed and plates read using the fluorescence plate reader.
2) Test samples were prepared in warm FluoroBrite™ DMEM and with 10% FBS and 1% NEAA (FB-DMEM). […]
5) Treatment plate was then washed quickly 3 times with warm FB-DMEM (100 μL/well). […] At this point, the plate was ready for reading. See details in Reading Plate section. Hoescht was read at Excitation wavelength (Ex)=355 nm & Emission wavelength (Em)=446 nm. mKate2 was read at Ex=575 nm & Em=630 nm. Cyto-ID™ was read at Ex=463 nm & Em=534 nm. […]

T1 sequence (O14939 whole entry): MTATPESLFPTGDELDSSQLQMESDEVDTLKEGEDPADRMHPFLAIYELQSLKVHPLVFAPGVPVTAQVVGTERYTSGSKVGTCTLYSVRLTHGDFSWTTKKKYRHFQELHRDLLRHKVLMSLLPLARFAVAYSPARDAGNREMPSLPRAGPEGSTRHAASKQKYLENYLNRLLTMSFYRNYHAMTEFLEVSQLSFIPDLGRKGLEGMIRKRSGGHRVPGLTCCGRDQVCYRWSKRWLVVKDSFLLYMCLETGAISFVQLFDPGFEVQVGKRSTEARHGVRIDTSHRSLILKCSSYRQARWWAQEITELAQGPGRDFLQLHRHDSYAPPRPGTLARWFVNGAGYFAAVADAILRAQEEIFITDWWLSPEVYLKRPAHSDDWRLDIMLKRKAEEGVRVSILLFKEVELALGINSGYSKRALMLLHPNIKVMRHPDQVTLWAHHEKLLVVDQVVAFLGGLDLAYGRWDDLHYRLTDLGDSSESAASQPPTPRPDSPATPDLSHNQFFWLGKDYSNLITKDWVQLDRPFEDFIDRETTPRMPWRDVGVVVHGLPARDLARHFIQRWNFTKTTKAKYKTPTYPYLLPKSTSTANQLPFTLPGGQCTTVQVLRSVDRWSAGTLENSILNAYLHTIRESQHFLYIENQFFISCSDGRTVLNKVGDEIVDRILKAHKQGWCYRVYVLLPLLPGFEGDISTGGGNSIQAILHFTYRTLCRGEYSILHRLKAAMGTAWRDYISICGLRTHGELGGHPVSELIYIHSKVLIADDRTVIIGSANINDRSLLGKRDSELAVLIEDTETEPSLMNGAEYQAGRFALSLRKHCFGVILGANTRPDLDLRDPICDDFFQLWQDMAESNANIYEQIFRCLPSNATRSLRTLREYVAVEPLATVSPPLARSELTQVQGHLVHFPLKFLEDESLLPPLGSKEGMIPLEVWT

Consider `Oc1ccc(CCNc2ncnc3ccc(Cl)cc23)cc1` [WHYKD8], for which the “detection in mouse brain by photodiode array” value in series [1] is “readily detected”.
Turning to `c1cnc2c(SC3CCCC3)ncnc2c1` [WHYKD36], the CC50 in series [2] came out at 67 µM. In addition, the “Proteostat PLD2/PLD1 ratio” value on PLD2 (ratio of Proteostat values) worked out at 1.5. In addition, the “mKate2 PLD2/PLD1 ratio” value at PLD2 (ratio of mKate2 values) came to 1.7.
Take `Fc1ccc2ncnc(SC3CCOCC3)c2c1` [WHYKD19]: the “% Increase Autophagy Markers” value in the series with Autophagy Markers was found to be 350%.
